Columns and labels:
[1] = tested on: SF-295; test: Cytotoxicity against human SF295 cells assessed as age growth inhibition at 50 uM after 48 hrs by sulforhodamine B assay; format: functional; settings: SF-295, 48 h, read-out: GI
[2] = tested on: A549; test: Cytotoxicity against human A549 cells assessed as age growth inhibition at 100 uM after 48 hrs by sulforhodamine B assay; format: functional; settings: A549, 48 h, read-out: GI
[3] = tested on: HOP-62; test: Cytotoxicity against human HOP62 cells assessed as age growth inhibition at 10 uM after 48 hrs by sulforhodamine B assay; format: functional; settings: HOP-62, 48 h, read-out: GI
[4] = tested on: HOP-62; test: Cytotoxicity against human HOP62 cells assessed as age growth inhibition at 100 uM after 48 hrs by sulforhodamine B assay; format: functional; settings: HOP-62, 48 h, read-out: GI
[5] = tested on: DU-145; test: Cytotoxicity against human DU145 cells assessed as age growth inhibition at 10 uM after 48 hrs by sulforhodamine B assay; format: functional; settings: DU-145, 48 h, read-out: GI
[6] = tested on: HCT-15; test: Cytotoxicity against human HCT15 cells assessed as age growth inhibition at 10 uM after 48 hrs by sulforhodamine B assay; format: functional; settings: HCT-15, 48 h, read-out: GI
[7] = tested on: IGROV-1; test: Cytotoxicity against human IGROV1 cells assessed as age growth inhibition at 100 uM after 48 hrs by sulforhodamine B assay; format: functional; settings: IGROV-1, 48 h, read-out: GI
[8] = tested on: DU-145; test: Cytotoxicity against human DU145 cells assessed as age growth inhibition at 100 uM after 48 hrs by sulforhodamine B assay; format: functional; settings: DU-145, 48 h, read-out: GI
[9] = tested on: COLO 205; test: Cytotoxicity against human COLO205 cells assessed as age growth inhibition at 10 uM after 48 hrs by sulforhodamine B assay; format: functional; settings: COLO 205, 48 h, read-out: GI
[10] = tested on: DU-145; test: Cytotoxicity against human DU145 cells assessed as age growth inhibition at 50 uM after 48 hrs by sulforhodamine B assay; format: functional; settings: DU-145, 48 h, read-out: GI
[11] = tested on: A549; test: Cytotoxicity against human A549 cells assessed as age growth inhibition at 10 uM after 48 hrs by sulforhodamine B assay; format: functional; settings: A549, 48 h, read-out: GI
[12] = tested on: IGROV-1; test: Cytotoxicity against human IGROV1 cells assessed as age growth inhibition at 50 uM after 48 hrs by sulforhodamine B assay; format: functional; settings: IGROV-1, 48 h, read-out: GI
[13] = tested on: HCT-15; test: Cytotoxicity against human HCT15 cells assessed as age growth inhibition at 50 uM after 48 hrs by sulforhodamine B assay; format: functional; settings: HCT-15, 48 h, read-out: GI
[14] = tested on: IGROV-1; test: Antiproliferative activity against human IGROV1 cells after 48 hrs by sulforhodamine B assay; format: functional, cell-based; settings: IGROV-1, 48 h
[15] = tested on: HCT-15; test: Antiproliferative activity against human HCT15 cells after 48 hrs by sulforhodamine B assay; format: functional, cell-based; settings: HCT-15, 48 h
[16] = tested on: HOP-62; test: Antiproliferative activity against human HOP62 cells after 48 hrs by sulforhodamine B assay; format: functional, cell-based; settings: HOP-62, 48 h
[17] = tested on: HEp-2; test: Cytotoxicity against human HEP2 cells assessed as age growth inhibition at 10 uM after 48 hrs by sulforhodamine B assay; format: functional; settings: HEp-2, 48 h, read-out: GI
[18] = tested on: SF-295; test: Cytotoxicity against human SF295 cells assessed as age growth inhibition at 100 uM after 48 hrs by sulforhodamine B assay; format: functional; settings: SF-295, 48 h, read-out: GI
[19] = tested on: SF-295; test: Antiproliferative activity against human SF295 cells after 48 hrs by sulforhodamine B assay; format: functional, cell-based; settings: SF-295, 48 h
[20] = tested on: A549; test: Antiproliferative activity against human A549 cells after 48 hrs by sulforhodamine B assay; format: functional, cell-based; settings: A549, 48 h
[21] = tested on: HCT-15; test: Cytotoxicity against human HCT15 cells assessed as age growth inhibition at 100 uM after 48 hrs by sulforhodamine B assay; format: functional; settings: HCT-15, 48 h, read-out: GI
[22] = tested on: COLO 205; test: Cytotoxicity against human COLO205 cells assessed as age growth inhibition at 50 uM after 48 hrs by sulforhodamine B assay; format: functional; settings: COLO 205, 48 h, read-out: GI
[23] = tested on: SK-OV-3; test: Cytotoxicity against human SKOV3 cells assessed as age growth inhibition at 10 uM after 48 hrs by sulforhodamine B assay; format: functional; settings: SK-OV-3, 48 h, read-out: GI
[24] = tested on: COLO 205; test: Antiproliferative activity against human COLO205 cells after 48 hrs by sulforhodamine B assay; format: functional, cell-based; settings: COLO 205, 48 h
[25] = tested on: HEp-2; test: Antiproliferative activity against human HEP2 cells after 48 hrs by sulforhodamine B assay; format: functional, cell-based; settings: HEp-2, 48 h
[26] = tested on: IGROV-1; test: Cytotoxicity against human IGROV1 cells assessed as age growth inhibition at 10 uM after 48 hrs by sulforhodamine B assay; format: functional; settings: IGROV-1, 48 h, read-out: GI
[27] = tested on: A549; test: Cytotoxicity against human A549 cells assessed as age growth inhibition at 50 uM after 48 hrs by sulforhodamine B assay; format: functional; settings: A549, 48 h, read-out: GI
[28] = tested on: HEp-2; test: Cytotoxicity against human HEP2 cells assessed as age growth inhibition at 50 uM after 48 hrs by sulforhodamine B assay; format: functional; settings: HEp-2, 48 h, read-out: GI
[29] = tested on: SK-OV-3; test: Antiproliferative activity against human SKOV3 cells after 48 hrs by sulforhodamine B assay; format: functional, cell-based; settings: SK-OV-3, 48 h
[30] = tested on: SF-295; test: Cytotoxicity against human SF295 cells assessed as age growth inhibition at 10 uM after 48 hrs by sulforhodamine B assay; format: functional; settings: SF-295, 48 h, read-out: GI
[31] = tested on: DU-145; test: Antiproliferative activity against human DU145 cells after 48 hrs by sulforhodamine B assay; format: functional, cell-based; settings: DU-145, 48 h
[32] = tested on: HOP-62; test: Cytotoxicity against human HOP62 cells assessed as age growth inhibition at 50 uM after 48 hrs by sulforhodamine B assay; format: functional; settings: HOP-62, 48 h, read-out: GI
[33] = tested on: SK-OV-3; test: Cytotoxicity against human SKOV3 cells assessed as age growth inhibition at 100 uM after 48 hrs by sulforhodamine B assay; format: functional; settings: SK-OV-3, 48 h, read-out: GI
[34] = tested on: SK-OV-3; test: Cytotoxicity against human SKOV3 cells assessed as age growth inhibition at 50 uM after 48 hrs by sulforhodamine B assay; format: functional; settings: SK-OV-3, 48 h, read-out: GI
[35] = tested on: COLO 205; test: Cytotoxicity against human COLO205 cells assessed as age growth inhibition at 100 uM after 48 hrs by sulforhodamine B assay; format: functional; settings: COLO 205, 48 h, read-out: GI
[36] = tested on: HEp-2; test: Cytotoxicity against human HEP2 cells assessed as age growth inhibition at 100 uM after 48 hrs by sulforhodamine B assay; format: functional; settings: HEp-2, 48 h, read-out: GI

Structure (SMILES)	inhibition of growth at 50 µM [1]	inhibition of growth at 100 µM [2]	inhibition of growth at 10 µM [3]	inhibition of growth at 100 µM [4]	inhibition of growth at 10 µM [5]	inhibition of growth at 10 µM [6]	inhibition of growth at 100 µM [7]	inhibition of growth at 100 µM [8]	inhibition of growth at 10 µM [9]	inhibition of growth at 50 µM [10]	inhibition of growth at 10 µM [11]	inhibition of growth at 50 µM [12]	inhibition of growth at 50 µM [13]	IC50 [14]	IC50 [15]	IC50 [16]	inhibition of growth at 10 µM [17]	inhibition of growth at 100 µM [18]	inhibition of growth at 10 µM [26]	inhibition of growth at 10 µM [30]	also measured
CC1(C)CCC[C@@]2(C)C1=C[C@H]1C(=O)O[C@H](c3ccccc3)[C@H]12	18%	51%	16%	28%	15%	9%	63%	56%	14%	32%	11%	22%	46%	83.7 µM	75.3 µM	> 100 µM	6%	22%	0%	15%	IC50 [19]: > 100 µM; IC50 [20]: 97.6 µM; inhibition of growth at 100 µM [21]: 56%; inhibition of growth at 50 µM [22]: 34%; inhibition of growth at 10 µM [23]: 20%; IC50 [24]: 63.6 µM; IC50 [25]: > 100 µM; inhibition of growth at 50 µM [27]: 29%; inhibition of growth at 50 µM [28]: 18%; IC50 [29]: 86.5 µM; IC50 [31]: 87.6 µM; inhibition of growth at 50 µM [32]: 21%; inhibition of growth at 100 µM [33]: 57%; inhibition of growth at 50 µM [34]: 30%; inhibition of growth at 100 µM [35]: 79%; inhibition of growth at 100 µM [36]: 37%
CC1(C)CCC[C@@]2(C)C1=C[C@H]1C(=O)O[C@H](c3ccco3)[C@H]12	17%	25%	2%	46%	17%	14%	67%	76%	16%	37%	19%	24%	50%	79.2 µM	50 µM	> 100 µM	8%	38%	1%	0%	IC50 [19]: > 100 µM; IC50 [20]: > 100 µM; inhibition of growth at 100 µM [21]: 56%; inhibition of growth at 50 µM [22]: 20%; inhibition of growth at 10 µM [23]: 6%; IC50 [24]: 79.5 µM; IC50 [25]: 98.8 µM; inhibition of growth at 50 µM [27]: 20%; inhibition of growth at 50 µM [28]: 19%; IC50 [29]: 91 µM; IC50 [31]: 63.3 µM; inhibition of growth at 50 µM [32]: 8%; inhibition of growth at 100 µM [33]: 57%; inhibition of growth at 50 µM [34]: 9%; inhibition of growth at 100 µM [35]: 64%; inhibition of growth at 100 µM [36]: 52%
Cc1ccc([C@H]2OC(=O)[C@@H]3C=C4C(C)(C)CCC[C@]4(C)[C@H]23)cc1	20%	42%	2%	21%	6%	11%	40%	35%	10%	10%	13%	29%	44%	> 100 µM	78 µM	> 100 µM	9%	21%	0%	19%	IC50 [19]: > 100 µM; IC50 [20]: > 100 µM; inhibition of growth at 100 µM [21]: 55%; inhibition of growth at 50 µM [22]: 22%; inhibition of growth at 10 µM [23]: 19%; IC50 [24]: > 100 µM; IC50 [25]: > 100 µM; inhibition of growth at 50 µM [27]: 29%; inhibition of growth at 50 µM [28]: 25%; IC50 [29]: > 100 µM; IC50 [31]: > 100 µM; inhibition of growth at 50 µM [32]: 13%; inhibition of growth at 100 µM [33]: 30%; inhibition of growth at 50 µM [34]: 29%; inhibition of growth at 100 µM [35]: 34%; inhibition of growth at 100 µM [36]: 27%
COc1ccc([C@H]2OC(=O)[C@@H]3C=C4C(C)(C)CCC[C@]4(C)[C@H]23)cc1	16%	55%	10%	52%	8%	16%	51%	43%	0%	12%	8%	30%	45%	94.2 µM	77.1 µM	94.8 µM	3%	16%	3%	0%	IC50 [19]: > 100 µM; IC50 [20]: 89.1 µM; inhibition of growth at 100 µM [21]: 55%; inhibition of growth at 50 µM [22]: 15%; inhibition of growth at 10 µM [23]: 0%; IC50 [24]: 99.2 µM; IC50 [25]: > 100 µM; inhibition of growth at 50 µM [27]: 31%; inhibition of growth at 50 µM [28]: 23%; IC50 [29]: > 100 µM; IC50 [31]: > 100 µM; inhibition of growth at 50 µM [32]: 30%; inhibition of growth at 100 µM [33]: 21%; inhibition of growth at 50 µM [34]: 0%; inhibition of growth at 100 µM [35]: 52%; inhibition of growth at 100 µM [36]: 27%
COc1cccc2c1C(=O)c1c(O)c3c(c(O)c1C2=O)C[C@@](O)(C(=O)CO)C[C@@H]3O[C@H]1C[C@H](N)[C@H](O)[C@H](C)O1 [DOXORUBICIN]	–	–	69%	–	64%	54%	–	–	–	–	47%	–	–	–	–	–	–	–	–	54%	–
CO[C@@]12[C@H](COC(N)=O)C3=C(C(=O)C(C)=C(N)C3=O)N1C[C@@H]1N[C@@H]12 [MITOMYCIN]	–	–	–	–	63%	–	–	–	–	–	55%	–	–	–	–	–	–	–	–	–	–
CC(=O)O[C@H]1C(=O)[C@@]2(C)[C@H]([C@H](OC(=O)c3ccccc3)[C@]3(O)C[C@H](OC(=O)[C@H](O)[C@@H](NC(=O)c4ccccc4)c4ccccc4)C(C)=C1C3(C)C)[C@]1(OC(C)=O)CO[C@@H]1C[C@@H]2O [PACLITAXEL]	–	–	26%	–	52%	40%	–	–	9%	–	40%	–	–	–	–	–	29%	–	15%	22%	–

Reference: ChEMBL document CHEMBL1140040, “Synthesis and cytotoxic activity of some novel polycyclic gamma-butyrolactones” (Bioorg Med Chem Lett, 2008)
